Experimental data reported in US8217005B2 (priority 2006, dated 2012).

Legend:
human μ-opioid receptor = target: T1, human μ-opioid receptor (Homo sapiens, UniProt P35372); assay: biochemical; format: binding
T1 construct: expressed in transfected cells; host or cells: HEK-293 cells

[1] = rat, in vivo
[2] = male, Sprague-Dawley, rat, in vivo, 0.5 mg/kg

T1 sequence (P35372 whole entry): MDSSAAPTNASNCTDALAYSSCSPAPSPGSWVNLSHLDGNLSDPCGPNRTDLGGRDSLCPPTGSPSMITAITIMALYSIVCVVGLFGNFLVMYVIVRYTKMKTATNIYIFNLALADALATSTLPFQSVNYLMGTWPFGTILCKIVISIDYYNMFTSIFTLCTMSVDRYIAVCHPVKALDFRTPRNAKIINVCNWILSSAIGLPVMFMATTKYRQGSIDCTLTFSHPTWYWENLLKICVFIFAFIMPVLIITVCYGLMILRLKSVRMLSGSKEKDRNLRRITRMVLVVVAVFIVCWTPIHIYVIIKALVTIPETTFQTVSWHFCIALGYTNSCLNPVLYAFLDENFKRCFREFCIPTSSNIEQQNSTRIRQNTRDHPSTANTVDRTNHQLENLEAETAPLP

CC(=O)N[C@@H](CCCNC(=N)N)C(=O)NCCN(C)C(=O)Oc1ccc2c3c1OC1C(=O)CCC4[C@@H](C2)N(C)CC[C@]314 (stereo partly drawn) [Example 3, Hydromorphone 3-(N-methyl-N-(2-N′-acetylarginylamino))ethylcarbamate]
IC50 (human μ-opioid receptor): 1.3 µM

C[N@+]1(CC2CC2)CC[C@]23c4c5ccc(O)c4O[C@H]2C(=O)CC[C@@]3(O)[C@H]1C5 [N-methylnaltrexone, (R)—N-methylnaltrexone, reference compound]
Cmax N-MTX following PO dosing ([1]; 20 mg/kg): 0.006 µg/mL
pharmacokinetic profile (e.g. oral bioavailability), FIG. 1 ([1]; 20 mg/kg): poor pharmacokinetic profile

CN(CCNC(=O)[C@@H](N)CCCCN)C(=O)Oc1ccc2c3c1OC1C(=O)CCC4[C@@H](C2)N(C)CC[C@]314 (stereo partly drawn) [Example 7, Hydromorphone 3-(N-methyl-N-(2-lysinylamino))ethylcarbamate]
IC50 (human μ-opioid receptor): 0.79 µM

CN(CCNC(=O)[C@H](CCCNC(=N)N)NC(=O)c1ccc2c(c1)OCO2)C(=O)Oc1ccc2c3c1OC1C(=O)CCC4[C@@H](C2)N(C)CC[C@]314 (stereo partly drawn) [Example 6, Hydromorphone 3-(N-methyl-N-(N′-piperonyl-2-arginylamino))ethylcarbamate]
IC50 (human μ-opioid receptor): 0.79 µM

CN(CCN)C(=O)Oc1ccc2c3c1O[C@H]1C(=O)CC[C@@]4(O)[C@@H](C2)[N+](C)(CC2CC2)CC[C@]314.Cl.[Cl-] (stereo partly drawn) [Example 19]
pharmacokinetic profile (e.g. oral bioavailability), FIG. 1 ([1]; 20 mg/kg): improved pharmacokinetic profile
Cmax value compared to (R)-N-methylnaltrexone ([1]; po): superior

CN1CC[C@]23c4c5ccc(O)c4O[C@H]2C(=O)CC[C@@]3(O)[C@H]1C5 [oxymorphone]
Cmax OM following IV dosing [2]: 0.432 µg/mL

CN(CCNC(=O)[C@@H](N)CCCNC(=N)N)C(=O)Oc1ccc2c3c1OC1C(=O)CCC4[C@@H](C2)N(C)CC[C@]314 (stereo partly drawn) [Example 1, Hydromorphone 3-(N-methyl-N-(2-arginylamino))ethylcarbamate]
IC50 (human μ-opioid receptor): 2.1 µM
